The values that follow come from patent US20230330234A1, “HYPERBRANCHED POLYESTER POLYOL DERIVATIVE AS DRUG SOLUBILIZER” (FREIE UNIVERSITÄT BERLIN, priority 2020, published 2023).

A short description of data set [1]: Carrying potential of h(PG-co-PCL)60S0.95 by UV-VIS. Type of data set: physicochemical. The following applies: calculated by UV. As for the experimental part:
For drugs presenting an absorption band at wavelength higher than 400 nm, UV-VIS analysis is chosen as quantification method. First, a calibration curve of the free drug in the suitable solvent mixture is recorded. Suitable combinations of solvent include mixtures of water and methanol, as well as of water and ethanol, in both cases in a ratio falling in a range of from 40 to 60% to 20 to 80%.
The calibration curve is prepared with at least 5 points, in a concentration range depending on the drug to be quantified. Linear regression is applied to generate the equation of the straight-line necessary to calculate the drug content.
The formulation is afterwards dissolved in the same medium and an UV-VIS spectrum is recorded. It is possible to use a straight-line equation to get the concentration of drug in solution. Knowing the total volume of the formulation, the content of drug, in mg, can be calculated.
(§1) The carrying potential (CP) of the polymer (solubilizing agent) is obtained as the ratio of the loaded and solubilized drug to the amount of solubilizing agent (Eq. 1).
(§2) The following tables (Table 5, Table 6 and Table 7) show the results of the performed analyses. In this context, h(PG-co-PCL)60S0.95 was used as hyperbranched polyester polyol derivative. Its non-sulfated backbone has a molecular weight of 60 kDa. The polyester polyol derivative has a sulfation degree of 95%.

A short description of data set [2]: Carrying potential of h(PG-co-PCL)60S0.95 by elemental analysis. Type of data set: physicochemical. The following applies: calculated by elemental analysis.
Source text: as §1
For drugs presenting an absorption band at wavelength lower than 400 nm, the UV-VIS approach is not suitable, due to drug signals overlapping with signals of the solubilizing agent. Therefore, elemental analysis is chosen as alternative approach. The drugs chosen for the solubilization and entrapment contain nitrogen atoms, which are not present in the polymer structure. Via the quantification of the nitrogen content in the sample, it is possible to determine the amount of drug in it. For the loading quantification, the same equation is used as in the previous case.
as §2

A short description of data set [3]: Size and Z-potential investigation by DLS in PB. Type of data set: physicochemical. As to conditions: h(PG-co-PCL)60S0.95 with solubilized drug; for Size (volume): DLS in PB, in nm (unit assumed); for Z-potential: in PB, in mV (unit assumed). An excerpt: The following tables (Table 5, Table 6 and Table 7) show the results of the performed analyses. In this context, h(PG-co-PCL)60S0.95 was used as hyperbranched polyester polyol derivative. Its non-sulfated backbone has a molecular weight of 60 kDa.

Data set [4] in a line: physchem. The following applies: aqueous with cosolvent or surfactant or cyclodextrin, thermodynamic from solid.
Another data set in a line: Solubility in water. The following applies: for solubility: Solubility in water.
The nature of data set [5]: Solubility in aqueous solution of the hyperbranched polyester polyol derivative.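 Further: drug added to a previously prepared clear aqueous solution of the solubilizing polymer, stirred 18 h at room temperature in the dark, then centrifuged.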
Data set [6] is described as follows: physchem. As to conditions: water.
The subject of a further data set is HeLa cells. The data set can be described thus: Cell viability experiment (toxicity) in HeLa cells. Type of data set: cell-based. As to conditions: Homo sapiens, free drug solubilized in DMSO vs drug solubilized in sulfated polyester polyol.
A further data set concerns KB-V1 cells. The data set can be described thus: Cell viability experiment (toxicity) in KB-V1 cells. The class given is cell-based. As to conditions: Homo sapiens, free drug solubilized in DMSO vs drug solubilized in sulfated polyester polyol.

In brackets after ≈: the same amount, converted by molar mass.

As to `CNCc1ccc(-c2cc(-c3nc(-c4ccc(S(=O)(=O)C(C)C)cc4)cnc3N)on2)cc1` [Berzosertib], the Carrying potential in data set [1] is recorded as 10% wt %.
As to `C=CC(=O)Nc1ccc2[nH]c(=O)n(C3CCN(Cc4ccc(-c5nc6cc[nH]c(=O)c6cc5-c5ccccc5)cc4)CC3)c2c1` [Borussertib], in data set [2], the Carrying potential was 12% wt %.
One may read the solubility as how much of the substance goes into solution per volume. Read a low solubility as a poorly soluble substance. Consider `CC(C)(C)c1nc(-c2cccc(NS(=O)(=O)c3c(F)cccc3F)c2F)c(-c2ccnc(N)n2)s1` [Dabrafenib], for which the Carrying potential in [2] is 1% wt %. Further, in data set [3], the “Size (volume)” value is reported as 12 ± 1 and the Z-potential is given as −29.6. Further, the solubility at 18 h in “physchem [4]” is over 300 µg/mL. Also, the solubility in “Solubility in water” came to 30 µg/mL (≈ 57.7 µM).
`[2H]c1nc(C)nc([2H])c1-c1cc(NC[C@@H](C)c2cccc3c(C(=O)NC)ccnc23)ncn1` [M9831/VX-984]: the Carrying potential in [1] is 10% wt %.
`CC(C)(C)C[C@@H]1N[C@@H](C(=O)N[C@H]2CC[C@H](O)CC2)[C@H](c2cccc(Cl)c2F)[C@]12C(=O)Nc1cc(Cl)ccc12` [MI-773] displayed a Solubility in water in “Solubility in water” of 1 µg/mL (≈ 1.78 µM). Further, the “Solubility in aqueous polymer solution” value in data set [5] is over 300 µg/mL.
On to `Cc1c(-c2c(-c3ccc(F)o3)sc3ncnc(O[C@H](Cc4ccccc4OCc4ccnn4CC(F)(F)F)C(=O)O)c23)ccc(OCCN2CCN(C)CC2)c1Cl` [S63845], for which the solubility in “physchem [6]” is 1 µg/mL (≈ 1.21 µM); in “physchem [4]”, over 300 µg/mL.
The compound `CN[C@@H]1C[C@H]2O[C@@](C)([C@@H]1OC)n1c3ccccc3c3c4c(c5c6ccccc6n2c5c31)C(=O)NC4` [Staurosporin] registered a Solubility in water in the data set “Solubility in water” of 40 µg/mL (≈ 85.7 µM). In addition, the “Solubility in aqueous polymer solution” value in [5] was over 300 µg/mL.
A word on the IC50: it is the midpoint of a concentration-inhibition curve. On to `CCN(CC)CCNC(=O)c1c(C)[nH]c(/C=C2\C(=O)Nc3ccc(F)cc32)c1C` [Sunitinib], for which the Carrying potential in [2] is listed as 8.7%^ wt %; in data set [1], 11% wt %. Moreover, the results for the IC50 in the data set with HeLa cells and with KB-V1 cells were 3.52 µg/mL (≈ 8.84 µM) and 1.95 µg/mL (≈ 4.9 µM), respectively. This compound yielded a solubility at 18 h in “physchem [4]” of over 300 µg/mL. Also, the solubility in “Solubility in water” stood at 30 µg/mL (≈ 75.3 µM).
As to `CC(=O)Nc1cccc(-n2c(=O)n(C3CC3)c(=O)c3c(Nc4ccc(I)cc4F)n(C)c(=O)c(C)c32)c1` [Trametinib], the Carrying potential in [2] is reported as 2% wt %. Moreover, in data set [3], the “Size (volume)” value is on record as 14 ± 2 and the Z-potential was −18.9. The compound further came in with a solubility in the data set “physchem [6]” of 30 µg/mL (≈ 48.7 µM). The same compound displayed a solubility at 18 h in “physchem [4]” of over 300 µg/mL.
